In US9987379B2, “Molecular probes for imaging of myelin” (Case Western Reserve University, priority 2008, dated 2018):

What was measured:
[1] = test system: myelinated corpus callosum and cerebellum; assay: In vitro staining of myelinated white matter in mouse brain tissue sections (fluorescent microscopy); type: binding; conditions: 10 μM, wild-type mouse brain sections
Protocol: We then evaluated the myelin-binding properties of the newly synthesized compounds 3, 6, and 7 through in vitro staining of mouse brain tissue sections. Both myelinated corpus callosum and cerebellar regions were then examined by fluorescent microscopy.
Normal control mice were deeply anesthetized and perfused transcardially with saline (10 mL) followed by fixation with 4% PFA in PBS (10 mL, 4° C., pH 7.6). Brain tissues were then removed, postfixed by immersion in 4% PFA overnight, dehydrated in 30% sucrose solution, embedded in freezing compound (OCT, Fisher Scientific, Suwanee, Ga.), cryostat sectioned at 10 μm on a microtome and mounted on superfrost slides (Fisher Scientific). The brain sections were incubated with compound 3, 6 and 7 (10 μM, 1% DMSO in PBS (10 mM, pH 7.0)) for 20 minutes at room temperature in dark. Excess compounds were washed by briefly rinsing the slides in PBS (10 mM, pH 7.0) and coversliped with fluoromount-G mounting media (Vector Laboratories, Burlingame, Calif.). Sections were then examined under a Leica DRMB microscope equipped for fluorescence.

[2] = Solubility in organic solvents; type: physicochemical
[3] = target: [3H]BMB binding sites on rat myelin fractions; assay: Competition binding assay using [3H]BMB as radioligand in isolated myelin fractions; conditions: 1.87 nM [3H]BMB, Cheng-Prusoff from IC50
Protocol: FIG. 4 illustrates plots of competition binding assays of test compounds using [^3H]BMB as the radioligand in isolated myelin fractions. The concentrations that inhibited 50% of specific binding of [^3H]BMB (IC50 values) were converted to inhibition constant (Ki). Ki values were calculated using the Cheng-Prusoff equation: Ki=IC50/(1+[L]/Kd), where [L] is the concentration of [^3H]BMB used in the assay. Data are means of three independent measurements done in duplicate.
In vitro binding assay using radioligand is the most sensitive techniques available to quantitatively determine the binding affinities of compounds to certain proteins. Our previous studies have shown that BMB binds to myelin sheaths with high affinity and specifity (Stankoff, B.; Wang, Y.; Bottlaender, M.; Aigrot, M. S.; Dolle, F. et al. Imaging of CNS myelin by positron-emission tomography. Proc Natl Acad Sci USA 2006, 103, 9304-9309). For this reason, tritiated BMB was custom synthesized by American Radiolabeled Chemicals Inc. (St Louis, Mo.) and was used as the radioligand for binding assays. This allowed us to determine the binding affinities of the newly synthesized compounds using isolated rat myelin fractions. Saturation experiment was first conducted using [^3H]BMB. […] Competitive binding assays were also conducted using [^3H]BMB as radioligand. The stilbene derivatives competed effectively with [^3H]BMB binding sites on rat myelin fractions at affinities of low micromole concentrations.
(§1) Sprague-Dawley (SD) rats were asphyxiated with CO2. When the rat had stopped breathing, the skin/fur over the neck was wetted with a spray of 70% ethanol. […] The concentration of myelin and pellet were determined by Bio-Rad Protein Assay.
The radioligand-based binding assays were carried out in 12×75 mm borosilicate glass tubes. […] Nonspecific binding was defined in the presence of cold BMB (1 μM, diluted in PBS (containing 1% DMSO) in the same assay tubes. For the competition binding, 10^−5 to 10^−10 M compounds and 1.87 nM [^3H]BMB were used for the studies. The mixture was incubated at 37° C. for 2 hrs. The bound and free radioactivity were separated by rapid vacuum filtration through Whatman GF/B filters using a Brandel M-24R cell harvester followed by 3×2 mL washes of PBS at room temperature. Filters containing the bound radioligand were dissolved in 6 mL biodegradable counting cocktail overnight and the radioactivity was assayed next day in the scintillation counter (Beckman) with 42% counting efficiency. The results of saturation and inhibition experiments were subjected to nonlinear regression analysis using Graph Pad Prism 4 by which Kd and Ki values were calculated.

[4] = test system: myelinated cerebellum; assay: In situ tissue staining of myelinated white matter after tail vein injection; type: in vivo, mouse; conditions: 20-80 mg/kg tail vein, three hours post injection, wild-type mice
Protocol: Following our in vitro tissue staining studies, we then evaluated the brain permeability and subsequent myelin-binding properties of 6 and 7 in the mouse brain. A dose of 6 or 7 (20-80 mg/kg) was administered via tail vein injection into wild-type mice. Three hours post injection, the mouse brains were perfused with saline followed by 4% paraformaldehyde (PFA) and removed. The fresh frozen brains were then sectioned. Fluorescent staining of myelinated regions such as the cerebellum were then directly examined under a microscope.
Under anesthesia, wild-type mice were injected with compounds 6 and 7 (20-80 mg/kg) via the tail vein, and the mice were then perfused transcardially with saline (10 ml) followed by 4% PFA in PBS (10 ml, 4° C., pH 7.6). Brain tissues were then removed, postfixed by immersion in 4% PFA overnight, dehydrated in 30% sucrose solution, cryostat sectioned at 16 μm on a microtome and mounted on superfrost slides (Fisher Scientific), and imaged directly under fluorescent microscopy without any further staining.

[5] = test system: non-myelin pellets; assay: Spectrophotometry-based binding assay with non-myelin pellets; design: species or system rat; conditions: 1 h room temperature; for binding to non-myelin fractions: 10 μM compound per tube; for concentration of free, unbound compound (constant and close to the total concentration initially used): incubated with non-myelin pellet at increasing concentration
Protocol: (§2) FIG. 2 illustrates plots of the concentrations of free, unbound 6 and 7 following incubation with isolated myelin fractions and non-myelin pellets based upon a spectroscopic assay. In these assays, 10 μM of 6 and 7 was added to each solution containing myelin fractions or non-myelin pellets at various concentrations ranging from 0-2.5 μg per tube. Each data point was repeated in triplicate and an average was used.
Binding affinities of newly synthesized compounds 6 and 7 were determined based on spectrophotometry. Myelin sheaths and non-myelin pellets were extracted from rat's brain homogenates according to subcellular fraction protocol (Martenson, R. E.; Deibler, G. E.; Kies, M. W. Extraction of rat myelin basic protein free of other basic proteins of whole central nervous system tissue. An analysis of its electrophoretic heterogeneity. J Biol Chem 1969, 244, 4268-4272). Briefly, the homogenates were successively mixed with different concentrations of sucrose and spun in a Beckman ultracentrifuge. Myelin sheaths and non-myelin containing pellets were well separated according to their different densities and located in different layers of sucrose. The proteins were then collected and washed thoroughly with Colman buffer (10 mM). The desired proteins were aliquoted and frozen at −80° C. for up to 6 months without noticeable change in its properties determined by electrophoresis (data not shown). Prior to binding assays, the protein fractions (myelin and pellet) were thawed and diluted with PBS (10 mM, pH 7.0). A series of concentrations of the protein fractions were incubated with tested compounds (6 and 7, 12.5 μM) for 1 h at room temperature. The free and bound tested compounds were then separated by centrifuging at 6000 rpm for 10 min and quantified.
as §1
In the spectrophotometry-based binding assays, a solution of 6 or 7 (800 μL, 12.5 μM) dissolved in 10% DMSO buffer solution containing 10 mM MgCl2 and 10 mM PBS (pH 7.4) was incubated with isolated myelin or pellets at different concentrations ranging from 0.06 to 14 μg/tube. […] Following incubation at room temperature for 1 hr, the free and bound 6 or 7 was separated by centrifugation at 6000 rpm for 10 min The supernatant was then collected and the UV absorption of free 6 or 7 determined by UV spectrometer were at 350 nm or 363 nm. […] In parallel, non-specific binding was determined using pellets under the same condition. […]

[6] = test system: isolated myelin fractions; assay: Spectrophotometry-based binding assay with isolated myelin fractions; design: species or system rat; conditions: 10 μM compound per tube, 1 h room temperature
Protocol: as §2
Binding affinities of newly synthesized compounds 6 and 7 were determined based on spectrophotometry. […] The desired proteins were aliquoted and frozen at −80° C. for up to 6 months without noticeable change in its properties determined by electrophoresis (data not shown). […] The free and bound tested compounds were then separated by centrifuging at 6000 rpm for 10 min and quantified.
Sprague-Dawley (SD) rats were asphyxiated with CO2. […] The concentration of myelin and pellet were determined by Bio-Rad Protein Assay.
In the spectrophotometry-based binding assays, a solution of 6 or 7 (800 μL, 12.5 μM) dissolved in 10% DMSO buffer solution containing 10 mM MgCl2 and 10 mM PBS (pH 7.4) was incubated with isolated myelin or pellets at different concentrations ranging from 0.06 to 14 μg/tube. […] In parallel, non-specific binding was determined using pellets under the same condition. […]

| SMILES | in vitro fluorescent staining of brain tissue sections [1] | solubility [2] | Ki [3] [nM] | brain entry and in situ labeling of myelin [4] | binding to non-myelin fractions [5] | concentration of free, unbound compound (constant and close to the total concentration initially used) [5] [µM] | binding to myelin fractions (free concentration decreased proportionally with myelin concentration) [6] |
| --- | --- | --- | --- | --- | --- | --- | --- |
| Nc1ccc(/C=C/c2ccc(N)cc2)cc1 [Compound 3, (E)-4,4′-diamino-trans-stilbene] | selectively labeled both corpus callosum and cerebellum | soluble in EtOH, CH2Cl2, DMSO and other organic solvents | 370 |  |  |  |  |
| CN(C)c1ccc(/C=C/c2ccc(N)cc2)cc1 [Compound 6, (E)-dimethyl-{4-[2-(4-amino-phenyl)-vinyl]-phenyl}-amine] | selectively labeled both corpus callosum and cerebellum | soluble in EtOH, CH2Cl2, DMSO and other organic solvents | 119 | readily entered the mouse brain and selectively labeled myelinated cerebellum | no binding to the non-myelin fractions | ~10.47 | specific binding interactions exist |
| CNc1ccc(C=Cc2ccc(N)cc2)cc1 [Compound 7, N-methyl-{4-[2-(4-amino-phenyl)-vinyl]-phenyl}-amine] | selectively labeled both corpus callosum and cerebellum | soluble in EtOH, CH2Cl2, DMSO and other organic solvents | 126 | readily entered the mouse brain and selectively labeled myelinated cerebellum | no binding to the non-myelin fractions | ~10.53 | specific binding interactions exist |
| Nc1ccc(C=Cc2ccc(I)cc2)cc1 [Compound 9, 4-[2-(4-Iodo-phenyl)-vinyl]-phenylamine] |  |  | 494 |  |  |  |  |
